The results in this text go back to ChEMBL document CHEMBL1137759, “Design, parallel synthesis, and crystal structures of biphenyl antithrombotics as selective inhibitors of tissue factor FVIIa complex. Part 1: Exploration of S2 pocket pharmacophores” (Bioorg Med Chem, 2009).

Molecules are shown by their SMILES. pIC50: −log10 of the molar value.

The target of one test is Coagulation factor X (Homo sapiens, UniProt P00742).
For a further test, the target named is Plasminogen (Homo sapiens, UniProt P00747). The test can be described thus: Inhibition of plasmin.
Sequence of Plasminogen (P00747 97-580 limits assumed): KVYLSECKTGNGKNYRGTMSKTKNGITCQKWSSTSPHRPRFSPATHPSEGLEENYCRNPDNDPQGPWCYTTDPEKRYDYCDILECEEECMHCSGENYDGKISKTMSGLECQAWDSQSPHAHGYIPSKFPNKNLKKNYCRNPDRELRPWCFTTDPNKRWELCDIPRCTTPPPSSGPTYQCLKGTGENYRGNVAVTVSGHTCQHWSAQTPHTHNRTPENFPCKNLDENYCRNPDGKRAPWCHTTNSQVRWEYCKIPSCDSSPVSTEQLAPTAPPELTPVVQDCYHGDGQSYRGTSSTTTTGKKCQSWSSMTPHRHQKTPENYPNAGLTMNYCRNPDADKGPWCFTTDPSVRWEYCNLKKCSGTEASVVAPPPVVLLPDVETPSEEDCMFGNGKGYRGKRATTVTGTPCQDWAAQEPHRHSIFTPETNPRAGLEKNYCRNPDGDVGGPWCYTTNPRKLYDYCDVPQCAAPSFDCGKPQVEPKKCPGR
Sequence of Plasminogen (P00747 581-810 limits assumed): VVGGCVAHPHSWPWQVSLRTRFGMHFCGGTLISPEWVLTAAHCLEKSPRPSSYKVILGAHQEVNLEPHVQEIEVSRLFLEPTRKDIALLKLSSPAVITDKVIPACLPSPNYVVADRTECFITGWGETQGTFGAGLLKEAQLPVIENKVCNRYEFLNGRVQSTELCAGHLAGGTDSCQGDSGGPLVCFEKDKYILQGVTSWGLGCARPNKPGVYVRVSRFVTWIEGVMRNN
The target in another test is Prothrombin (Homo sapiens, UniProt P00734). Nature of the test: Inhibition of thrombin.
Test [1] is described as follows: Selectivity ratio of IC50 for tissue factor/factor 7a to IC50 for trypsin.
In test [2] the target is Coagulation factor VII/tissue factor (Homo sapiens, UniProt P08709). The test can be described thus: Inhibition of tissue factor/factor 7a. It is filed as protein-complex assay.
Sequence of Coagulation factor VII/tissue factor (P08709 61-212 limits assumed): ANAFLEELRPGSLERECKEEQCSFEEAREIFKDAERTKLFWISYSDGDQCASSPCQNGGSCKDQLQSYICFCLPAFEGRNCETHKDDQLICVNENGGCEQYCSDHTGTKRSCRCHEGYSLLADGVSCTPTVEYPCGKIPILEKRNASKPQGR
Sequence of Coagulation factor VII/tissue factor (P08709 213-466 limits assumed): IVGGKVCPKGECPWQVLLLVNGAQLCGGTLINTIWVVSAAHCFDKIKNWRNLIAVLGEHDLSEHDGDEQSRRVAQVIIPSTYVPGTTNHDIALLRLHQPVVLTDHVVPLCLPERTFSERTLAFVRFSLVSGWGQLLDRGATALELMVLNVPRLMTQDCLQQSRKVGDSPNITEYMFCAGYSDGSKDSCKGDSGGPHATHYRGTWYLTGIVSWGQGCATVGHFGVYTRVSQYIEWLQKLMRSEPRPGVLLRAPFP
Sequence of Coagulation factor VII/tissue factor (P13726 33-295 partner limits assumed): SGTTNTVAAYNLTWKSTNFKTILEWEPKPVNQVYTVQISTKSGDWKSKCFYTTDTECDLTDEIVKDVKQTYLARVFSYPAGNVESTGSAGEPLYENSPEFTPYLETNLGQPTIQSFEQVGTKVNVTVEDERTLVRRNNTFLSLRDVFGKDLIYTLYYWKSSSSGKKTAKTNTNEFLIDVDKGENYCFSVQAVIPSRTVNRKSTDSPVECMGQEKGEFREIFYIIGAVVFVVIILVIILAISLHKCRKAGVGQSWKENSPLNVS

Sequence of Coagulation factor X (P00742 41-179 limits assumed): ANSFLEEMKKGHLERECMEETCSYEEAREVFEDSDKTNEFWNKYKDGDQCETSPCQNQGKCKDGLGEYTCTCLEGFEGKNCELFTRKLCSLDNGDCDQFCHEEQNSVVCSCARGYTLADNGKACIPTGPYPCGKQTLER
Sequence of Coagulation factor X (P00742 235-488 limits assumed): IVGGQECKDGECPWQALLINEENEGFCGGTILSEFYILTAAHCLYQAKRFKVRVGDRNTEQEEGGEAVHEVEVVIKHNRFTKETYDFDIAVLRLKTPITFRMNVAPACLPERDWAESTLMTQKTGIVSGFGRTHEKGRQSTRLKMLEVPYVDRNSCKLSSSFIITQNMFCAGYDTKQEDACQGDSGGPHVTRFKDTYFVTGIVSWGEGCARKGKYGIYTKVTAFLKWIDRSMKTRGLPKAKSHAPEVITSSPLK

Take `CC(C)=CCc1ccc(-c2ccc(C(=O)NCC(C)C)cc2C(=O)O)c(C(=O)Nc2ccc(C(=N)N)cc2)c1`: the pIC50 at Coagulation factor X is 4.57; against Plasminogen, 6.51; at Prothrombin, 4.89; in test [2], 7.35. The Ratio IC50 in test [1] came out at 21.1.
For `COc1ccc(-c2ccc(C(=O)NCC(C)C)cc2C(=O)O)c(C(=O)Nc2ccc(C(=N)N)cc2)c1`, the pIC50 was 5.18 against Coagulation factor X, 4.84 against Plasminogen, 4.83 against Prothrombin and 7.52 in test [2]. For the same molecule, in test [1], the Ratio IC50 turned out to be 25.3.
For `CC(C)CNC(=O)c1ccc(-c2ccc(-c3cscc3CN)cc2C(=O)Nc2ccc(C(=N)N)cc2)c(C(=O)O)c1`, in that order: 8.00, 6.64, 3.96, 7.48 and 54.2.
For `CC#Cc1ccc(-c2ccc(C(=O)NCC(C)C)cc2C(=O)O)c(C(=O)Nc2ccc(C(=N)N)cc2)c1`, in that order: 5.28, 6.90, 4.30, 7.47 and 48.8.
For `C=C(CCO)c1ccc(-c2ccc(C(=O)NCC(C)C)cc2C(=O)O)c(C(=O)Nc2ccc(C(=N)N)cc2)c1`, in that order: 4.95, 6.45, 4.25, 7.54 and 75.5.
With `CC(C)CNC(=O)c1ccc(-c2ccc(-c3ccsc3CO)cc2C(=O)Nc2ccc(C(=N)N)cc2)c(C(=O)O)c1`, the pIC50 is 6.35 against Coagulation factor X, 6.39 against Plasminogen, 4.30 at Prothrombin and 7.44 in test [2]. Besides, the Ratio IC50 in test [1] was found to be 84.4.
For `C/C=C\Cc1ccc(-c2ccc(C(=O)NCC(C)C)cc2C(=O)O)c(C(=O)Nc2ccc(C(=N)N)cc2)c1`, in that order: 5.12, 6.16, 5.31, 7.96 and 119.
Turning to `C=C(C)c1ccc(-c2ccc(C(=O)NCC(C)C)cc2C(=O)O)c(C(=O)Nc2ccc(C(=N)N)cc2)c1`, the negative logarithm of the IC50 (pIC50) is 5.93 against Coagulation factor X, 7.15 against Plasminogen, 4.75 against Prothrombin and 7.89 in test [2]. The Ratio IC50 in test [1] stood at 40.8.
For the molecule `CCCc1ccc(-c2ccc(C(=O)NCC(C)C)cc2C(=O)O)c(C(=O)Nc2ccc(C(=N)N)cc2)c1`, the pIC50 against Coagulation factor X is 4.34; against Plasminogen, less than 5.30; at Prothrombin, 4.40; in test [2] it was 7.04. Also, the Ratio IC50 in test [1] came out at 450.
For `CC(C)CNC(=O)c1ccc(-c2ccc(-c3ccco3)cc2C(=O)Nc2ccc(C(=N)N)cc2)c(C(=O)O)c1`, in that order: 5.89, 6.79, 4.83, 8.05 and 41.4.
For `CC(C)CNC(=O)c1ccc(-c2ccc(-c3cocc3CO)cc2C(=O)Nc2ccc(C(=N)N)cc2)c(C(=O)O)c1`, in that order: 6.64, 6.26, less than 4.30, 7.70 and 114.
`CC(C)CNC(=O)c1ccc(-c2ccc(-c3ccoc3CO)cc2C(=O)Nc2ccc(C(=N)N)cc2)c(C(=O)O)c1`: the pIC50 on Coagulation factor X was 7.70; at Plasminogen, 6.34; at Prothrombin it was less than 4.30; in test [2], 8.10. In addition, in test [1], the Ratio IC50 is 92.5.
Take `CC(C)CNC(=O)c1ccc(-c2ccc(-c3ccoc3)cc2C(=O)Nc2ccc(C(=N)N)cc2)c(C(=O)O)c1`: the pIC50 was 6.92 against Coagulation factor X, 6.60 at Plasminogen, 4.79 at Prothrombin and 7.96 in test [2]. Moreover, the Ratio IC50 in test [1] stood at 42.6.
For `CC(C)CNC(=O)c1ccc(-c2ccc(Cc3cccs3)cc2C(=O)Nc2ccc(C(=N)N)cc2)c(C(=O)O)c1`, in that order: 5.09, 6.04, 4.38, 7.96 and 127.
For `C=CCc1ccc(-c2ccc(C(=O)NCC(C)C)cc2C(=O)O)c(C(=O)Nc2ccc(C(=N)N)cc2)c1`, in that order: 5.72, 5.61, 4.72, 7.38 and 57.6.
For `C=C(CO)c1ccc(-c2ccc(C(=O)NCC(C)C)cc2C(=O)O)c(C(=O)Nc2ccc(C(=N)N)cc2)c1`, in that order: 5.15, 6.09, 4.40, 7.92 and 295.
As for `CC(C)CNC(=O)c1ccc(-c2ccc(-c3cccnc3)cc2C(=O)Nc2ccc(C(=N)N)cc2)c(C(=O)O)c1`, the pIC50 against Coagulation factor X was 4.44; against Prothrombin, 4.30; in test [2], 6.26. In test [1], the Ratio IC50 was 5.5.
With `CC(C)CNC(=O)c1ccc(-c2ccc(-c3cscc3CN=[N+]=[N-])cc2C(=O)Nc2ccc(C(=N)N)cc2)c(C(=O)O)c1`, the pIC50 on Coagulation factor X was 7.30; on Plasminogen, 6.62; against Prothrombin it was 3.80; in test [2], 8.05. Further, the Ratio IC50 in test [1] worked out at 133.
For `C#Cc1ccc(-c2ccc(C(=O)NCC(C)C)cc2C(=O)O)c(C(=O)Nc2ccc(C(=N)N)cc2)c1`, in that order: 5.09, 6.00, 4.30, 7.60 and 115.
For `CC(C)CNC(=O)c1ccc(-c2ccc(-c3occc3CO)cc2C(=O)Nc2ccc(C(=N)N)cc2)c(C(=O)O)c1`, in that order: 6.82, 5.97, 4.30, 7.62 and 32.1.
For `CC(C)CNC(=O)c1ccc(-c2ccc(Cc3ccccc3)cc2C(=O)Nc2ccc(C(=N)N)cc2)c(C(=O)O)c1`, in that order: 5.76, 6.18, 5.07, 7.68 and 26.9.
As to `CC(C)CNC(=O)c1ccc(-c2ccc(-c3ccsc3)cc2C(=O)Nc2ccc(C(=N)N)cc2)c(C(=O)O)c1`, the pIC50 at Coagulation factor X is 7.40; at Plasminogen, 7.46; against Prothrombin, 4.82; in test [2], 8.00. Moreover, the Ratio IC50 in test [1] came to 37.7.
Consider `C=Cc1ccc(-c2ccc(C(=O)NCC(C)C)cc2C(=O)O)c(C(=O)Nc2ccc(C(=N)N)cc2)c1`, for which the pIC50 was 5.78 at Coagulation factor X, 5.03 against Prothrombin and 8.05 in test [2]. For the same molecule, the Ratio IC50 in test [1] amounted to 52.2.
With `CCc1ccc(-c2ccc(C(=O)NCC(C)C)cc2C(=O)O)c(C(=O)Nc2ccc(C(=N)N)cc2)c1`, the pIC50 was 4.30 at Coagulation factor X, less than 5.30 on Plasminogen, 4.91 against Prothrombin and 7.01 in test [2]. For the same molecule, the Ratio IC50 in test [1] is 61.8.
As to `CC(C)CNC(=O)c1ccc(-c2ccc(-c3nccs3)cc2C(=O)Nc2ccc(C(=N)N)cc2)c(C(=O)O)c1`, the negative-log IC50 (pIC50) on Coagulation factor X is 6.64; on Plasminogen, 6.31; on Prothrombin, 4.15; in test [2], 6.98. Besides, in test [1], the Ratio IC50 was found to be 14.1.
For `CC(C)CNC(=O)c1ccc(-c2ccc(-c3cscc3CO)cc2C(=O)Nc2ccc(C(=N)N)cc2)c(C(=O)O)c1`, in that order: 6.89, 7.22, 4.20, 8.05 and 56.7.
